Reference: patent US11084790B2, “Insoluble complex or solvate thereof, pharmaceutical composition and use thereof” (Fruithy Holdings Limited, priority 2017, dated 2021)
≈ marks a conversion by molar mass, not a printed value.

Assay: Test on the solubility in a simulated body fluid
Format: physicochemical
Conditions: for Compound concentration: Bupivacaine / Compound concentration: DBTA / Compound concentration: DTTA: 0.01 M PBS pH 7.4, 37° C.
Method: Test on the Solubility in a Simulated Body Fluid
The concentration of the drug dissolved in the PBS buffered solution was determined with an HPLC-a method.

## CCCCN1CCCCC1C(=O)Nc1c(C)cccc1C (stereo not shown) [Bupivacaine free base, reference compound]
Phosphate buffered saline (simulated body fluid), 37 °C, aqueous buffer, thermodynamic from solid, simulated body fluid, 0.01 M PBS at pH 7.4, read-out: Saturated solubility
  solubility at 24 h: 1450 µM (≈ 418 µg/mL)

## CCCCN1CCCCC1C(=O)Nc1c(C)cccc1C.O=C(OC(C(=O)O)C(OC(=O)c1ccccc1)C(=O)O)c1ccccc1 (stereo not shown) [Preparation Example 1, mono(bupivacaine) dibenzoyl tartarate]
5 min
  Compound concentration: Bupivacaine: 4884.6 µM
  Compound concentration: DBTA: 4992 µM
15 min
  Compound concentration: Bupivacaine: 6987.2 µM
  Compound concentration: DBTA: 7107.7 µM
30 min
  Compound concentration: Bupivacaine: 7755.2 µM
  Compound concentration: DBTA: 7866.6 µM
1 h
  Compound concentration: Bupivacaine: 8196 µM
  Compound concentration: DBTA: 8284.6 µM
2 h
  Compound concentration: Bupivacaine: 7911.7 µM
  Compound concentration: DBTA: 8015.5 µM
6 h
  Compound concentration: Bupivacaine: 7006.1 µM
  Compound concentration: DBTA: 7590.5 µM
24 h
  Compound concentration: Bupivacaine: 5767.9 µM
  Compound concentration: DBTA: 7303.7 µM

## CCCCN1CCCCC1C(=O)Nc1c(C)cccc1C.CCCCN1CCCCC1C(=O)Nc1c(C)cccc1C.O=C(OC(C(=O)O)C(OC(=O)c1ccccc1)C(=O)O)c1ccccc1 (stereo not shown) [Preparation Example 2, bis(bupivacaine) dibenzoyl tartarate]
5 min
  Compound concentration: Bupivacaine: 819 µM
  Compound concentration: DBTA: 769.6 µM
15 min
  Compound concentration: Bupivacaine: 1593.7 µM
  Compound concentration: DBTA: 1550.4 µM
30 min
  Compound concentration: Bupivacaine: 2133.2 µM
  Compound concentration: DBTA: 2183.8 µM
1 h
  Compound concentration: Bupivacaine: 2848.7 µM
  Compound concentration: DBTA: 3035.9 µM
2 h
  Compound concentration: Bupivacaine: 3565.4 µM
  Compound concentration: DBTA: 3953.3 µM
6 h
  Compound concentration: Bupivacaine: 6577 µM
  Compound concentration: DBTA: 6336.3 µM
24 h
  Compound concentration: Bupivacaine: 6389.6 µM
  Compound concentration: DBTA: 6122.7 µM

## CCCCN1CCCCC1C(=O)Nc1c(C)cccc1C.Cc1ccc(C(=O)OC(C(=O)O)C(OC(=O)c2ccc(C)cc2)C(=O)O)cc1 (stereo not shown) [Preparation Example 3, mono(bupivacaine) di-p-toluoyl tartarate]
5 min
  Compound concentration: Bupivacaine: 7947.6 µM
  Compound concentration: DTTA: 7316.3 µM
15 min
  Compound concentration: Bupivacaine: 7862.6 µM
  Compound concentration: DTTA: 7244.6 µM
30 min
  Compound concentration: Bupivacaine: 7662.2 µM
  Compound concentration: DTTA: 7012.2 µM
1 h
  Compound concentration: Bupivacaine: 7519 µM
  Compound concentration: DTTA: 6900.6 µM
2 h
  Compound concentration: Bupivacaine: 7719.3 µM
  Compound concentration: DTTA: 7048.1 µM
6 h
  Compound concentration: Bupivacaine: 7883.2 µM
  Compound concentration: DTTA: 7211.7 µM
24 h
  Compound concentration: Bupivacaine: 7917.8 µM
  Compound concentration: DTTA: 7249 µM
